The results in this text go back to patent publication US20240092791A1, “DIHYDROFUROPYRIDINE DERIVATIVES AS RHO-KINASE INHIBITORS” (CHIESI FARMACEUTICI S.P.A., priority 2020, published 2024).

Each structure is given as a SMILES string.

In one experiment the target is Rho kinase 1 (ROCK1) (Homo sapiens, UniProt Q13464). Nature of the experiment: In vitro inhibitory activity assay ROCK1 (ADP-Glo). It is filed as biochemical. The following applies: ATP 200 μM, Cheng-Prusoff from IC50; read-out: ROCK 1 (Ki, range of activity). Here is the method: (§1) The effectiveness of compounds of the present invention to inhibit Rho kinase activity can be determined in a 10 μl assay containing 40 mM Tris pH7.5, 20 mM MgCl2 0.1 mg/mL BSA, 50 μM DTT and 2.5 μM peptide substrate (Myelin Basic Protein) using an ADP-Glo kit (Promega). Compounds were dissolved in DMSO such that the final concentration of DMSO was 1% in the assay. All reactions/incubations are performed at 25° C. Compound (2 ul) and either Rho kinase 1 or 2 (4 μl) were mixed and incubated for 30 mins. Reactions were initiated by addition of ATP (4μ1) such that the final concentration of ATP in the assay was 200 μM. After a 1 hour incubation 10 μl of ADP-Glo Reagent was added and after a further 1 hour incubation 20 ul of Kinase Detection Buffer was added and the mixture incubated for a further 45 minutes. The luminescent signal was measured on a luminometer. […] Compounds were tested in dose-response format and the inhibition of kinase activity was calculated at each concentration of compound. To determine the IC50 (concentration of compound required to inhibit 50% of the enzyme activity) data were fit to a plot of % inhibition vs Log10 compound concentration using a sigmoidal fit with a variable slope and fixing the maximum to 100% and the minimum to 0%. To determine the Ki values the Cheng-Prusoff equation was utilized (Ki=IC50/(1+[S]/Km).
Rho kinase 1 (ROCK1), sequence (Q13464 whole entry): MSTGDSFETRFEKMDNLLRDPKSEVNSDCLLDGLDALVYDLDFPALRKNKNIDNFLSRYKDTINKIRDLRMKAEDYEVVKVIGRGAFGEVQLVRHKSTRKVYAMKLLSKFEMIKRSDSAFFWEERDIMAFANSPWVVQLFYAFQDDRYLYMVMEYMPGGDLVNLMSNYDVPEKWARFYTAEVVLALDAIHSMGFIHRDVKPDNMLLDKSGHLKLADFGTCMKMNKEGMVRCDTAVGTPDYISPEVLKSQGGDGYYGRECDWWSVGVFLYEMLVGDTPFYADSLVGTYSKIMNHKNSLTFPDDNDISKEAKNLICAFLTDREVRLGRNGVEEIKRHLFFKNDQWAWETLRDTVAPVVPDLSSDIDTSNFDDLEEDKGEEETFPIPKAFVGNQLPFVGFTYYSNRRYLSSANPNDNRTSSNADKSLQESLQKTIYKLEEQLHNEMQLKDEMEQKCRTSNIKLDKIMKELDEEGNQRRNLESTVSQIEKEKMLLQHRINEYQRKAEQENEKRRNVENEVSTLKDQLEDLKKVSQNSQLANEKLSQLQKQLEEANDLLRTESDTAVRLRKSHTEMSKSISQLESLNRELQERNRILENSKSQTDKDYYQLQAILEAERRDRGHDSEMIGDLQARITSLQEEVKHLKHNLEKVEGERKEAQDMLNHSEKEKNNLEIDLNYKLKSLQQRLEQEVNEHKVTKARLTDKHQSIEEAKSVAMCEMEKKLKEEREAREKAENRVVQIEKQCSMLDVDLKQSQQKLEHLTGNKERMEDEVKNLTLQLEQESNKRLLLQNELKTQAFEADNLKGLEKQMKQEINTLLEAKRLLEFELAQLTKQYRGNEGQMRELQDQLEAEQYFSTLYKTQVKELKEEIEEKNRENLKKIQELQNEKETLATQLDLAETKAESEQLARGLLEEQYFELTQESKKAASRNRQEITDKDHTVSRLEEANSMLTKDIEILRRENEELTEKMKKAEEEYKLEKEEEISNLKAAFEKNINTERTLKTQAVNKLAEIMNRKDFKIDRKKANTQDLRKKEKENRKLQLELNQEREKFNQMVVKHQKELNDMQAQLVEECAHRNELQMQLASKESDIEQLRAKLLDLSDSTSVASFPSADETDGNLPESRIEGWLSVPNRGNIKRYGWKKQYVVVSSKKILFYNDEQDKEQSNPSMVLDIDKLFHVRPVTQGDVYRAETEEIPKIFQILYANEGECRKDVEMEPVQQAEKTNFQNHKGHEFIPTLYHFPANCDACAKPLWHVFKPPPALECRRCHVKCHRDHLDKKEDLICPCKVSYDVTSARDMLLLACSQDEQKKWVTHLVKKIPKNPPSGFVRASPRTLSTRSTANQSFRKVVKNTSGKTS
For orientation: ADP-Glo first removes unused ATP, then detects ADP through luciferase.

The target of the next experiment is Rho kinase 2 (ROCK2) (Homo sapiens, UniProt O75116). Nature of the experiment: In vitro inhibitory activity assay ROCK2 (ADP-Glo). It is filed as biochemical. Conditions: ATP 200 μM, Cheng-Prusoff from IC50; read-out: ROCK2 (Ki, range of activity). Here is the method: as §1
Rho kinase 2 (ROCK2), sequence (O75116 whole entry): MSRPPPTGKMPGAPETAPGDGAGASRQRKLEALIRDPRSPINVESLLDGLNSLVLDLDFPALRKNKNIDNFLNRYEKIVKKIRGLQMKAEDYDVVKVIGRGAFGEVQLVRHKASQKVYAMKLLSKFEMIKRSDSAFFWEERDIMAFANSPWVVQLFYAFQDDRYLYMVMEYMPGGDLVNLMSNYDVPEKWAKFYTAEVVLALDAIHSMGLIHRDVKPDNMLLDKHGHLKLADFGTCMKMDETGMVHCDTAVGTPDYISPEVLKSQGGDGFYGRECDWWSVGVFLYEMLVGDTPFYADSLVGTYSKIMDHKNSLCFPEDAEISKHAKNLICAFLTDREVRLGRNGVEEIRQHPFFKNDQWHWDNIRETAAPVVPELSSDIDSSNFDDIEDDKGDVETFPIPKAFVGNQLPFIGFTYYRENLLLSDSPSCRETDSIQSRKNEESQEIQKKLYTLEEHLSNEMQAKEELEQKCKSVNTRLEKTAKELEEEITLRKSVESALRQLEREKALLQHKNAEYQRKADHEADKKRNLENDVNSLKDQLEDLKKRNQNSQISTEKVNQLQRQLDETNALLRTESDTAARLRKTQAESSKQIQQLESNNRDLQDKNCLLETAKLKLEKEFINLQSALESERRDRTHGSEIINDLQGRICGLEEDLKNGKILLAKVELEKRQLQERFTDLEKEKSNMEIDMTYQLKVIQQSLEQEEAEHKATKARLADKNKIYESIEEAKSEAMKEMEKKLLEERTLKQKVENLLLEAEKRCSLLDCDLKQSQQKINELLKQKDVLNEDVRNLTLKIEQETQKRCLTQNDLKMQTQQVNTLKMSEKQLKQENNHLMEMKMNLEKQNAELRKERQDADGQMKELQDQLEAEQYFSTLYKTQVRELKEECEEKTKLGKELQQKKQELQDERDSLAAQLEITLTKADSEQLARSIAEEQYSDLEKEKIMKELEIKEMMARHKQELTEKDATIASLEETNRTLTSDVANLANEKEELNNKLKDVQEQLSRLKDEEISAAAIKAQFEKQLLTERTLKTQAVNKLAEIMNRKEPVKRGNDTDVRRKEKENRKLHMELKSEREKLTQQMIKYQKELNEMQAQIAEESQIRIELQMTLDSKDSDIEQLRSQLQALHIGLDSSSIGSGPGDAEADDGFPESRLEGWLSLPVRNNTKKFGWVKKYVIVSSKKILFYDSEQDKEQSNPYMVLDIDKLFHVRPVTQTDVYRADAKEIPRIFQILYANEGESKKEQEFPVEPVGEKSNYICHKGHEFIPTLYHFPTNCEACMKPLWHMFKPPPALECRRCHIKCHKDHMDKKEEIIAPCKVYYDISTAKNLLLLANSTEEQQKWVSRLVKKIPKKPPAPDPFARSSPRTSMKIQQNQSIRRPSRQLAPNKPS
The next experiment has as its target PKA (Homo sapiens, UniProt P17612). As to the kind of experiment: In vitro inhibitory activity assay for PKA (ADP-Glo), reported as selectivity ratio vs ROCK2. It is filed as biochemical. Conditions: Ki value for PKA divided by Ki value of ROCK2. Here is the method: The effectiveness of compounds of the present invention to inhibit PKA activity can be determined in a 10 μl assay containing 40 mM Tris pH7.5, 20 mM MgCl2 0.1 mg/ml BSA, 50 μM DTT and 260 μM peptide substrate (kemptide) using an ADP-Glo kit (Promega). Compounds were dissolved in DMSO such that the final concentration of DMSO was 1% in the assay. All reactions/incubations are performed at 25° C. Compound and PKA enzyme (6 μl) were mixed and incubated for 30 mins. Reactions were initiated by addition of ATP (4 μl ) such that the final concentration of ATP in the assay was 10 μM. After a 30 minute incubation 10 μl of ADP-Glo Reagent was added and after a further 1 hour incubation 20 μl of Kinase Detection Buffer was added and the mixture incubated for a further 45 minutes. The luminescent signal was measured on a luminometer. […] Compounds were tested in dose-response format and the inhibition of kinase activity was calculated at each concentration of compound. To determine the IC50 (concentration of compound required to inhibit 50% of the enzyme activity) data were fit to a plot of % inhibition vs Logio compound concentration using a sigmoidal fit with a variable slope and fixing the maximum to 100% and the minimum to 0%. To determine the Ki values the Cheng-Prusoff equation was utilized (Ki=IC50/(1+[S]/Km).
In vitro inhibitory activities for PKA were reported as selectivity ratio vs. ROCK-2.

Experiment [1] deals with cch-evoked bronchoconstriction. Nature of the experiment: Experimental bronchospasm (carbachol-induced bronchoconstriction, Konzett & Roessler). It is filed as in vivo, Male CD Sprague Dawley rats. Conditions: for inhibition in vivo at 0.01 mg/kg / inhibition in vivo at 0.003 mg/kg: iv, rat, 1 hour after administration, carbachol 80 μg/kg i.v., read-out: Inhibition % (±s.e. mean) of cch-evoked bronchoconstriction; for inhibition in vivo at 0.01 mg/kg: dose 10 μg/Kg intratracheal; for inhibition in vivo at 0.003 mg/kg: dose 3 μg/Kg intratracheal. The protocol: Male CD Sprague Dawley rats (220-250 g) were purchased from Charles River Laboratories Italy (Calco, Lecco). Prior to use animals were acclimated for at least 5 days 20 to the local vivarium conditions (room temperature: 20-24° C.; relative humidity: 40-70%), having free access to standard rat chow and softened tap water. All the procedures were performed in animal operating rooms according to ethical guidelines for the conduct of animal research (D. L.vo 116/92).
Rats were anaesthetized with a combination of anesthetics (Zoletil 20 mg/kg+Xylazine 5 mg/kg, ip) for the i.t. administration. A laryngoscope was moved forward into the mouth to visualize the trachea and guide the insertion of the tip of a custom-made small diameter cannula directly into the trachea and located 1-2 mm above the bifurcation.
In order to assess the residual inhibitory activity of test compounds 1 hour after their administration, rats were surgically prepared. Body temperature was kept constant at 37° C. by a heated blanket.
The trachea was cannulated and the lungs were ventilated artificially with a constant volume ventilator (rodent ventilator mod. 7025, Ugo Basile, Comerio, Varese, Italy) at a frequency of 80 strokes/min and at a tidal volume of 10 ml/kg. To avoid spontaneous breathing, the animals were injected intravenously (i.v.) with pancuronium bromide (2 mg/kg).
Bronchoconstriction was induced by the i.v. injection of carbachol (cch) 80 μg/kg. In control experiments, repeated injections of this dose produced reproducible short-lasting (1-2 min duration) bronchospasms. Bronchoconstriction, quantified as a reduction of tidal volume, was evaluated according to the method described by Konzett & Roessler (1). Systemic blood pressure and changes in airway resistance were monitored with a digital pressure transducer.
After stabilisation of artificial breathing and blood pressure, animals were injected (i.v.) with cch every 3 min, until 3 stable and reproducible basal responses were obtained. […] The effect of test compounds was 15 expressed as % inhibition of cch-evoked bronchoconstriction in time-matched, vehicle-treated, animals (controls).
Tested compounds were dissolved in dH2O and 1% Tween-80 or 0,001% HCl and further diluted to target concentrations. Tested compounds were instilled locally into the trachea in a volume of 125 μl.
All data are presented as mean±s.e.mean. The % inhibition of experimental bronchospasm was calculated comparing the drug-treated with the vehicle-treated control animals. Data analysis was performed using GraphPad Prism software.

Regarding `CN(C)CCC(=O)N1CCN(c2ccc(NC(=O)c3cccc(CNc4ncc(-c5ccnc(N)n5)c5c4CCO5)c3)nc2)CC1` [Example 66, 3-(((7-(2-aminopyrimidin-4-yl)-2,3-dihydrofuro[3,2-c]pyridin-4-yl)amino)methyl)-N-(5-(4-(3-(dimethylamino)propanoyl)piperazin-1-yl)pyridin-2-yl)benzamide], the Ki at Rho kinase 1 (ROCK1) and at Rho kinase 2 (ROCK2) was at most 3 nM throughout. Besides, the “Ratio (PKA/ROCK2)” value at PKA is listed as “*** (ratio≥10)”. Also, in experiment [1], the inhibition in vivo at 0.01 mg/kg was found to be 79.4 ± 7.3%.

`CN(C)CCNc1ccc(NC(=O)c2cccc(CNc3ncc(-c4ccnc(N)n4)c4c3CCO4)c2)nc1` [Example 77, 3-(((7-(2-aminopyrimidin-4-yl)-2,3-dihydrofuro[3,2-c]pyridin-4-yl)amino)methyl)-N-(5-((2-(dimethylamino)ethyl)amino)pyridin-2-yl)benzamide]: the inhibition constant Ki at Rho kinase 1 (ROCK1) and on Rho kinase 2 (ROCK2) was at most 3 nM throughout. The “Ratio (PKA/ROCK2)” value at PKA was “*** (ratio≥10)”. In addition, the inhibition in vivo at 0.003 mg/kg in experiment [1] turned out to be 79%.

As for `Nc1nccc(-c2cnc(NCc3cccc(C(=O)Nc4ccc(OC[C@]5(F)CCNC5)cn4)c3)c3c2OCC3)n1` [Example 79, (S)-3-(((7-(2-aminopyrimidin-4-yl)-2,3-dihydrofuro[3,2-c]pyridin-4-yl)amino)methyl)-N-(5-((3-fluoropyrrolidin-3-yl)methoxy)pyridin-2-yl)benzamide], the Ki on Rho kinase 1 (ROCK1) and at Rho kinase 2 (ROCK2) was at most 3 nM each time. Also, the “Ratio (PKA/ROCK2)” value at PKA was “*** (ratio≥10)”. Besides, in experiment [1], the inhibition in vivo at 0.01 mg/kg stood at 58 ± 6%.

Regarding `CN1CCN(Cc2ccc(NC(=O)c3cccc(CNc4ncc(-c5ccnc(N)n5)c5c4CCO5)c3)nc2)CC1` [Example 78, 3-(((7-(2-aminopyrimidin-4-yl)-2,3-dihydrofuro[3,2-c]pyridin-4-yl)amino)methyl)-N-(5-((4-methylpiperazin-1-yl)methyl)pyridin-2-yl)benzamide], the inhibition constant Ki on Rho kinase 1 (ROCK1) and on Rho kinase 2 (ROCK2) was at most 3 nM each time. Also, the “Ratio (PKA/ROCK2)” value on PKA is reported as “*** (ratio≥10)”. Besides, the inhibition in vivo at 0.01 mg/kg in experiment [1] was determined as 68.8 ± 8.6%.

For `CN(C)CCOc1ccc(NC(=O)c2cccc(CNc3ncc(-c4ccnc(N)n4)c4c3CCO4)c2)nc1` [Example 52, 3-(((7-(2-aminopyrimidin-4-yl)-2,3-dihydrofuro[3,2-c]pyridin-4-yl)amino)methyl)-N-(5-(2-(dimethylamino)ethoxy)pyridin-2-yl)benzamide], the inhibition constant (Ki) on Rho kinase 1 (ROCK1) and at Rho kinase 2 (ROCK2) was at most 3 nM throughout. At PKA, the “Ratio (PKA/ROCK2)” value is reported as “*** (ratio≥10)”. Moreover, in experiment [1], the inhibition in vivo at 0.01 mg/kg was 51.5 ± 6.2%.

In the case of `CN1CCN(C)C(COc2ccc(NC(=O)c3cccc(CNc4ncc(-c5ccnc(N)n5)c5c4CCO5)c3)nc2)C1` (single isomer, unassigned) [Example 82, 3-(((7-(2-aminopyrimidin-4-yl)-2,3-dihydrofuro[3,2-c]pyridin-4-yl)amino)methyl)-N-(5-((1,4-dimethylpiperazin-2-yl)methoxy)pyridin-2-yl)benzamide], the Ki at Rho kinase 1 (ROCK1) and on Rho kinase 2 (ROCK2) was at most 3 nM throughout. Besides, the “Ratio (PKA/ROCK2)” value on PKA is given as “*** (ratio≥10)”. Moreover, in experiment [1], the inhibition in vivo at 0.01 mg/kg was determined as 69.7 ± 3.4%.

Turning to `COc1ccc(NC(=O)c2cccc(CNc3ncc(-c4ccnc(N)n4)c4c3CCO4)c2)nc1` [Example 51, 3-(((7-(2-Aminopyrimidin-4-yl)-2,3-dihydrofuro[3,2-c]pyridin-4-yl)amino)methyl)-N-(5-methoxypyridin-2-yl)benzamide], the Ki at Rho kinase 1 (ROCK1) and at Rho kinase 2 (ROCK2) was at most 3 nM each time. Moreover, the “Ratio (PKA/ROCK2)” value at PKA is “*** (ratio≥10)”. Besides, the inhibition in vivo at 0.01 mg/kg in experiment [1] was 3.1 ± 14.8%. For the same compound, in experiment [1] (rat bronchospasm test, internal comparator vs compounds with bulky moiety W), the “activity as bronchodilator (in words)” value is reported as “markedly lower activity as bronchodilator”.

Regarding `Nc1nccc(-c2cnc(NCc3cccc(C(=O)Nc4ccc(OC5CCNCC5)cn4)c3)c3c2OCC3)n1` [Example 71, 3-(((7-(2-aminopyrimidin-4-yl)-2,3-dihydrofuro[3,2-c]pyridin-4-yl)amino)methyl)-N-(5-(piperidin-4-yloxy)pyridin-2-yl)benzamide], the Ki on Rho kinase 1 (ROCK1) and at Rho kinase 2 (ROCK2) was at most 3 nM in each case. Besides, the “Ratio (PKA/ROCK2)” value on PKA is on record as “*** (ratio≥10)”. The inhibition in vivo at 0.003 mg/kg in experiment [1] was 47.9 ± 7.7%.

Turning to `CNCCNc1ccc(NC(=O)c2cccc(CNc3ncc(-c4ccnc(N)n4)c4c3CCO4)c2)nc1` [Example 70, 3-(((7-(2-aminopyrimidin-4-yl)-2,3-dihydrofuro[3,2-c]pyridin-4-yl)amino)methyl)-N-(5-((2-(methylamino)ethyl)amino)pyridin-2-yl)benzamide], the Ki at Rho kinase 1 (ROCK1) and at Rho kinase 2 (ROCK2) was at most 3 nM throughout. In addition, the “Ratio (PKA/ROCK2)” value at PKA is “*** (ratio≥10)”. In addition, in experiment [1], the inhibition in vivo at 0.01 mg/kg worked out at 62.2 ± 7%.

Take `Nc1nccc(-c2cnc(NCc3cccc(C(=O)Nc4ccc(N5CCNCC5)cn4)c3)c3c2OCC3)n1` [Example 53, 3-(((7-(2-aminopyrimidin-4-yl)-2,3-dihydrofuro[3,2-c]pyridin-4-yl)amino)methyl)-N-(5-(piperazin-1-yl)pyridin-2-yl)benzamide]: the inhibition constant Ki at Rho kinase 1 (ROCK1) and on Rho kinase 2 (ROCK2) was at most 3 nM each time. Besides, the “Ratio (PKA/ROCK2)” value on PKA is “*** (ratio≥10)”. For the same compound, the inhibition in vivo at 0.01 mg/kg in experiment [1] turned out to be 70.7 ± 3.4%.

Consider `CNC1(COc2ccc(NC(=O)c3cccc(CNc4ncc(-c5ccnc(N)n5)c5c4CCO5)c3)nc2)CCOCC1` [Example 80, 3-(((7-(2-aminopyrimidin-4-yl)-2,3-dihydrofuro[3,2-c]pyridin-4-yl)amino)methyl)-N-(5-((4-(methylamino)tetrahydro-2H-pyran-4-yl)methoxy)pyridin-2-yl)benzamide], for which the inhibitory constant (Ki) at Rho kinase 1 (ROCK1) and on Rho kinase 2 (ROCK2) was at most 3 nM throughout. Moreover, at PKA, the “Ratio (PKA/ROCK2)” value is “*** (ratio≥10)”. In addition, in experiment [1], the inhibition in vivo at 0.01 mg/kg stood at 85.7 ± 0.8%.

For `CNCc1ccc(NC(=O)c2cccc(CNc3ncc(-c4ccnc(N)n4)c4c3CCO4)c2)nc1` [Example 84, 3-(((7-(2-Aminopyrimidin-4-yl)-2,3-dihydrofuro[3,2-c]pyridin-4-yl)amino)methyl)-N-(5-((methylamino)methyl)pyridin-2-yl)benzamide], the inhibition constant Ki at Rho kinase 1 (ROCK1) and at Rho kinase 2 (ROCK2) was at most 3 nM throughout. At PKA, the “Ratio (PKA/ROCK2)” value is listed as “*** (ratio≥10)”. For the same compound, in experiment [1], the inhibition in vivo at 0.01 mg/kg came to 89.5 ± 2%.

Usually Ki stands for a dissociation constant, usually derived from enzyme kinetics or from competition with a known ligand.
